Experimental data reported in PMC10102842 (Clinical cancer research : an official journal of the …, 2023).

Target: DNA polymerase theta (Polθ) (Homo sapiens, UniProt O75417)
Assay: Nano-luciferase MMEJ reporter assay in HEK-293 cells
Type: cell-based

Chain of DNA polymerase theta (Polθ) (O75417 whole entry): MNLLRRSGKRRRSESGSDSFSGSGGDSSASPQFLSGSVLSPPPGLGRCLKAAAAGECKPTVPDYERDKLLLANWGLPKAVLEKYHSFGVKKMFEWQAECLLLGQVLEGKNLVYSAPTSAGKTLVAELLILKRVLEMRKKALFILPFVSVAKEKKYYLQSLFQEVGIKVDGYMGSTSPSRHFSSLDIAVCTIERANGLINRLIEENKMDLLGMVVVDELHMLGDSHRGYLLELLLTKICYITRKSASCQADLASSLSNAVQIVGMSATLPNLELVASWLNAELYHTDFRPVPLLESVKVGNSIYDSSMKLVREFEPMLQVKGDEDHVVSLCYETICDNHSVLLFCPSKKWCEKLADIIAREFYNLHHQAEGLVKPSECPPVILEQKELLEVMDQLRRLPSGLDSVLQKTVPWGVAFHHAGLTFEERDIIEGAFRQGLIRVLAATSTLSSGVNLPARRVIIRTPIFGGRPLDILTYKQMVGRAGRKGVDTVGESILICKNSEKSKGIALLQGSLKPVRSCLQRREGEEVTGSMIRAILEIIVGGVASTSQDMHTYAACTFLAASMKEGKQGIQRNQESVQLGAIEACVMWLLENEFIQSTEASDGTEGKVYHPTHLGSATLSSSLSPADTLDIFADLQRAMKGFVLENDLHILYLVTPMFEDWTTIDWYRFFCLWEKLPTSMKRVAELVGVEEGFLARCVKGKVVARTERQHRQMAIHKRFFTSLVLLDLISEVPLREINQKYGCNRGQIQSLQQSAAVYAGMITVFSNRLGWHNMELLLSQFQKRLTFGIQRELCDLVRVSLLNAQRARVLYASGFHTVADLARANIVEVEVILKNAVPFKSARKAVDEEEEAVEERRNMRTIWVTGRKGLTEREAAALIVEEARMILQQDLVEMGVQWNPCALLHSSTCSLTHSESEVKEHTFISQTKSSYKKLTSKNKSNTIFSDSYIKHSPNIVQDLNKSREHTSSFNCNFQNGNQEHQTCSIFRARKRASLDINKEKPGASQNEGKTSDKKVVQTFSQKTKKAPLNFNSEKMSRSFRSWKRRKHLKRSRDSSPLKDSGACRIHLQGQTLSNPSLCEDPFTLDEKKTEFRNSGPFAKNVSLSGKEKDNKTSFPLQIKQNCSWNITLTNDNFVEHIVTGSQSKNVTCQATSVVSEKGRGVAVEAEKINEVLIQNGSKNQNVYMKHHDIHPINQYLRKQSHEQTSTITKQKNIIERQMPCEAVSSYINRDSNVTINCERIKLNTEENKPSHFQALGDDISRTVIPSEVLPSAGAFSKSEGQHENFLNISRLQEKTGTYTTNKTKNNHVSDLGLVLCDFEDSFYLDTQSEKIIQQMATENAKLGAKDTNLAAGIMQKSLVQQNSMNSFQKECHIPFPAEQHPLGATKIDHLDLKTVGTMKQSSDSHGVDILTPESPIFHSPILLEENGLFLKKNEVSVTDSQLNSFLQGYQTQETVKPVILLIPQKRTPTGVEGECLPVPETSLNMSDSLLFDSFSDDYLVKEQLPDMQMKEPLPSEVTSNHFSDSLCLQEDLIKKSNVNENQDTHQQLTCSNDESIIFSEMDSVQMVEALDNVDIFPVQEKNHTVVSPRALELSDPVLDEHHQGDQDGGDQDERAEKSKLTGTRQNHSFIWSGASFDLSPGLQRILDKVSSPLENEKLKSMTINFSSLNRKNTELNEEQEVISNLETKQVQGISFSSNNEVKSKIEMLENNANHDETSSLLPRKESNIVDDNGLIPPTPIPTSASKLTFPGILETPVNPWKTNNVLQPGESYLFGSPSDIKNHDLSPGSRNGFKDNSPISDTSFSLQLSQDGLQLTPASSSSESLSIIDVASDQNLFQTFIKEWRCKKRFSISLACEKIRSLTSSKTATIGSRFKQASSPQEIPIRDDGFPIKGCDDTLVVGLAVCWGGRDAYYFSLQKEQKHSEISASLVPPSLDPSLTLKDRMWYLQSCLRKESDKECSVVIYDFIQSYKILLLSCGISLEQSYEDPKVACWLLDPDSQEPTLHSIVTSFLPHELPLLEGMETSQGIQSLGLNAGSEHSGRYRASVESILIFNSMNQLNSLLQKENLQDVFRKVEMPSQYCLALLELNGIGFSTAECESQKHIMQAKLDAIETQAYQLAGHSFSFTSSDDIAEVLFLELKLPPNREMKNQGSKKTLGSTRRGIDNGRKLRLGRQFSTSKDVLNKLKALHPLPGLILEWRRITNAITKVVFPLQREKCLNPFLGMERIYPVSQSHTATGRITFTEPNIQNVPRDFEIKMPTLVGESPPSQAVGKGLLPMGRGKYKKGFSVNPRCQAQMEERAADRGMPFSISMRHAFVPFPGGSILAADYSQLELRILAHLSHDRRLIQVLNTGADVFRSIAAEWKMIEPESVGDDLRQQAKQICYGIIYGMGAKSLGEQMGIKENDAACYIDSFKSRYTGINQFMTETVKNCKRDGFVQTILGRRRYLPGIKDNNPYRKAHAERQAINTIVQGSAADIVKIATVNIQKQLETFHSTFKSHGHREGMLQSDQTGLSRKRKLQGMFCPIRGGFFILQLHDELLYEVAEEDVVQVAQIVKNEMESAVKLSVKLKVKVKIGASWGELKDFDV

IC50: ~0.18 µM
Substance: ART899
